Results published in publication PMC6308302, “Identification of Pharmacokinetic Markers for Guanxin Danshen Drop Pills in Rats by Combination of Pharmacokinetics, Systems Pharmacology, and Pharmacodynamic Assays” (Frontiers in Pharmacology, 2018).
Marks after values point to notes of the source that are not given here.

Columns and labels:
[1] = Multiple component PK study in rat plasma after p.o. GDDP (HPLC-MS); conditions: for detection in rat plasma: at 5, 10, 15, 30, 45, or 60 min, LOD 0.5–0.7 ng/mL; for AUC(0-inf) / AUC(0-t) / MRT inf / MRT last / Tmax / Cmax / half-life: Sprague-Dawley, rat, plasma, po
[2] = system: isoprenaline-induced MI in mice; assay: In vivo anti-MI study: isoprenaline-induced myocardial injury (ECG, H&E histology)
[3] = Stability tests in rat plasma (QC samples, HPLC-MS); conditions: n=5
From the text: Accuracy and precision were expressed by relative error (RE) and coefficient of variance (RSD), respectively.

[4] = Aqueous solubility test (vortexing in water); type: physicochemical; conditions: thermodynamic from solid; determined, water, 25 °C, 1 atm
Procedure: Aqueous solubility (S) test of the 17 ingredients was performed by vortexing 10 mg of each ingredient in […] water in a test tube at ambient temperature and 1 atm. After vortexing for 5 min, if the solution is clear, the tested object will be considered as soluble in water. In silico assessment of the physicochemical properties governing permeation and intestinal absorption was carried out for the 17 ingredients studied. Theory aqueous solubility (S) was calculated with ALOGPS 2.1 online software via the Virtual Computational Chemistry Laboratory service (Chemoinformatics Group, Neuherberg, Germany) (VCCLAB^1). The octanol–water partition coefficient (cLogP), the total hydrogen bond count (donors and acceptors), and topological polar surface area (TPSA) were determined using the Molinspiration Property Calculator (Molinspiration Cheminformatics, Bratislava, Slovak Republic^2). Lipinski’s rule of 5 was used to predict the permeability of the compound ([Lipinski et al., 2001]).

[5] = system: Caco-2 cell monolayers; conditions: ref Lu et al., 2008, Liu et al., 2009, Hu et al., 2014, Bowles et al., 2017, cited from earlier work; for Papp(apical→basolateral) / Papp(basolateral→apical): Caco-2 cell monolayers, from literature; for apparent permeability in Caco-2 cell monolayers: previous results
[6] = 24h in auto-sampler vials, spiked 2 ng/mL
[7] = 24h in auto-sampler vials, spiked 400 ng/mL
[8] = 24h in auto-sampler vials, spiked 1600 ng/mL
[9] = Placing plasma for 6h at 4°C, spiked 2 ng/mL
[10] = Placing plasma for 6h at 4°C, spiked 400 ng/mL
[11] = Placing plasma for 6h at 4°C, spiked 1600 ng/mL
[12] = three freeze-thaw cycles, rat plasma, spiked 2 ng/mL
[13] = three freeze-thaw cycles, rat plasma, spiked 400 ng/mL
[14] = three freeze-thaw cycles, rat plasma, spiked 1600 ng/mL

For CC(C)=CCC[C@](C)(O[C@@H]1O[C@H](CO[C@@H]2O[C@H](CO)[C@@H](O)[C@H](O)[C@H]2O)[C@@H](O)[C@H](O)[C@H]1O)[C@H]1CC[C@]2(C)[C@@H]1[C@H](O)C[C@@H]1[C@@]3(C)CC[C@H](O[C@@H]4O[C@H](CO)[C@@H](O)[C@H](O)[C@H]4O[C@@H]4O[C@H](CO)[C@@H](O)[C@H](O)[C@H]4O)C(C)(C)[C@@H]3CC[C@]12C [Rb1, ginsenoside Rb1], the “determination in rat plasma at the planned successive PK time points” value ([1]; GDDP 0.8 g/kg p.o., 5, 10, 15, 30, 45, 60, and 120 min, LOQ 1.0–1.4 ng/mL) was “could be determined”, the “detection in rat plasma” value ([1]; GDDP 0.8 g/kg p.o.) was “could be detected” and the AUC(0-inf) ([1]; 0.4 g/kg) was 1930 ± 1300 ng·h/mL. It also gave an AUC(0-t) ([1]; 0.4 g/kg) of 818 ± 272 ng·h/mL, an MRT inf ([1]; 0.4 g/kg) of 36.6 ± 17.7 h and an MRT last ([1]; 0.4 g/kg) of 11.42 ± 0.11 h. The Tmax ([1]; 0.4 g/kg) was 3.25 ± 3.89 h, the Cmax ([1]; 0.4 g/kg, Cmax, rat plasma, GDDP 0.4 g/kg p.o. (Low dose group), n=3) was 57 ± 27.3 ng/mL and the half-life ([1]; 0.4 g/kg, t1/2 β, rat plasma, GDDP 0.4 g/kg p.o. (Low dose group), n=3) was 22.9 ± 12.4 h. For the same molecule, the AUC(0-inf) ([1]; 0.8 g/kg) was 1350 ± 486 ng·h/mL, the AUC(0-t) ([1]; 0.8 g/kg) was 998 ± 200 ng·h/mL and the MRT inf ([1]; 0.8 g/kg) was 17.1 ± 4.98 h. For the same molecule, the MRT last ([1]; 0.8 g/kg) was 9.63 ± 0.6 h, the Tmax ([1]; 0.8 g/kg) was 3.34 ± 3.05 h and the Cmax ([1]; 0.8 g/kg, Cmax (high / low plasma drug concentrations), rats, GDDP 0.4 and 0.8 g/kg p.o., classification) was over 20 ng/mL. It also gave a Cmax ([1]; 0.8 g/kg, Cmax, rat plasma, GDDP 0.8 g/kg p.o. (High dose group), n=3) of 80.3 ± 19.2 ng/mL, a half-life ([1]; 0.8 g/kg, t1/2 β (fast / slow elimination type), rats, GDDP 0.4 and 0.8 g/kg p.o., classification) of over 2.6 h and a half-life ([1]; 0.8 g/kg, t1/2 β, rat plasma, GDDP 0.8 g/kg p.o. (High dose group), n=3) of 10.8 ± 4.03 h. For the same molecule, the Cltot ([1]; rat plasma, GDDP 0.4 g/kg p.o. (Low dose group), n=3) was 18 ± 12 mL/min/kg, the Cltot ([1]; rat plasma, GDDP 0.8 g/kg p.o. (High dose group), n=3) was 43.2 ± 13.5 mL/min/kg and the “systematic exposure (AUC0-∞), times higher than those of CTS and DHTS” value ([1]; rats, p.o. GDDP, P < 0.05) was 84–1137 times. The “systematic exposure (AUC0-∞), times higher than those of Rd, R1, Rg1, TS IIA, and TS I” value ([1]; rats, p.o. GDDP, P < 0.05) was 3.5–30 times, the “anti-MI effect (overall conclusion)” value ([2]; 40 mg/kg p.o. for 7 days, isoprenaline-induced MI) was “favorable anti-MI effect” and the “Histopathology of heart tissue (H&E)” value ([2]; 40 mg/kg p.o. for 7 days, isoprenaline-induced MI, 40 mg/kg) was “less severe histological damage with mild cell distortion, edema, and good continuity with adjacent myofibrils”. For the same molecule, the “ECG (lead II) findings on the fifth day of the trial” value ([2]; 40 mg/kg p.o., isoprenaline 5 mg/kg on days 4 and 5) was “T waves reversed or decreased”, the “Stability: Measured” value [3, 6] was 1.97 ± 0.29 ng/mL and the “Stability: RE” value [3, 6] was -1.62%. For the same molecule, the “Stability: Measured” value [3, 7] was 386.10 ± 20.53 ng/mL, the “Stability: RE” value [3, 7] was -3.47% and the “Stability: Measured” value [3, 8] was 1540.64 ± 55.53 ng/mL. For the same molecule, the “Stability: RE” value [3, 8] was -3.71%, the “Stability: Measured” value [3, 9] was 1.66 ± 0.17 ng/mL and the “Stability: RE” value [3, 9] was -16.86%. The “Stability: Measured” value [3, 10] was 376.87 ± 18.97 ng/mL, the “Stability: RE” value [3, 10] was -5.78% and the “Stability: Measured” value [3, 11] was 1647.48 ± 31.81 ng/mL. For the same molecule, the “Stability: RE” value [3, 11] was 2.97%, the “Stability: Measured” value [3, 12] was 1.75 ± 0.23 ng/mL and the “Stability: RE” value [3, 12] was -12.42%. The “Stability: Measured” value [3, 13] was 394.28 ± 21.32 ng/mL, the “Stability: RE” value [3, 13] was -1.43% and the “Stability: Measured” value [3, 14] was 1601.88 ± 26.56 ng/mL. For the same molecule, the “Stability: RE” value [3, 14] was 0.12%, the solubility at 5 min [4] was over 10000 µg/mL and the “Papp(apical→basolateral)” value [5] was > 0.1^c ×10^-6 cm/s. The “Papp(basolateral→apical)” value [5] was > 0.1^c ×10^-6 cm/s and the “apparent permeability in Caco-2 cell monolayers” value [5] was > 10^-7 cm/s.
In the case of O=Cc1ccc(O)c(O)c1 [PCAL, protocatechuic aldehyde], the “detection in rat plasma” value ([1]; GDDP 0.8 g/kg p.o.) is given as “could be detected”, the solubility at 5 min [4] is given as over 10000 µg/mL and the “Papp(apical→basolateral)” value [5] is given as 12.1^a ×10^-6 cm/s. For the same molecule, the “Papp(basolateral→apical)” value [5] was 21.8^a ×10^-6 cm/s and the “apparent permeability in Caco-2 cell monolayers” value [5] was ≥ 10^-6 cm/s.
